Article PMC11054271, “ABCG2 Transports the Flukicide Nitroxynil and Affects Its Biodistribution and Secretion into Milk” (Pharmaceutics, 2024)

Legend:
[1] = Transepithelial transport assay in parental MDCK-II monolayers; type: in vitro ADME, canine; settings: dog, nitroxynil 10 µM, no Ko143, read-out: Relative efflux transport ratio (BA/AB)
Procedure: (§1) Parental Madin–Darby canine kidney epithelial cells (MDCK–II) and their subclones transduced with murine (mAbcg2) and human (hABCG2) variants of ABCG2 were kindly provided by Dr. A. H. Schinkel (Netherlands Cancer Institute). Transduced MDCK–II cells with the ovine (oABCG2) and bovine (bABCG2) variants were previously generated by our group. Cells were cultured as described elsewhere.
(§2) Transepithelial transport assays were carried out as previously described with minor variations, using Hanks’ balanced salt solution (Sigma-Aldrich) supplemented with HEPES (25 mM), with or without Ko143 (1 μM), and containing or not nitroxynil 10 μM. […] At the end of the experiment, confluence of the monolayer was measured with the previously described Lucifer Yellow permeability test, with minor modifications. The appearance of nitroxynil in the opposite side of the well was measured by HPLC as later described. Active transport was expressed as relative efflux transport ratio (apically directed transport percentage divided by the basolaterally directed translocation percentage) at 4 h and referred to the initial concentration. […]
(§3) Waters 2695 separation module and Waters 2998 UV photodiode array detector set at 270 nm were used for samples analysis. […] Limit of detection (LOD) and quantification (LOQ) were calculated as previously described. […]

ovine ABCG2 = experiment: Transepithelial transport assay in MDCK-II cells transduced with ovine ABCG2; type: in vitro ADME; settings: sheep, MDCK-II oABCG2, nitroxynil 10 µM, no Ko143, read-out: Relative efflux transport ratio (BA/AB)
Procedure: as §1, §2, §3

efflux ratio at 4 h, 10 µM [1]: 1.04 ± 0.03 | efflux ratio at 4 h, 10 µM (ovine ABCG2): 27.4 ± 5.32
Structure (SMILES): N#Cc1cc(I)c(O)c([N+](=O)[O-])c1 [nitroxynil]
